Drawing on US9255090B2, “Heterocyclyl derivatives and their use as prostaglandin D2 receptor modulators” (Actelion Pharmaceuticals Ltd., priority 2012, dated 2016), this text covers IC50 for seven molecules.

pIC50: −log10 of the molar value.

Assay [1] has as its target hCRTH2 receptor (Homo sapiens (Human), UniProt Q9Y5Y4). The experiment in a line: hCRTH2 receptor membranes radioligand (3H-PGD2) displacement assay. The assay is classed as binding. To be noted: 3H-PGD2 radioligand displacement, HEK293-hCRTH2 membranes. The gist of the method: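 Compound was first mixed with buffer, then 3H-PGD2 was added at 2.5 nM, and the reaction was started with hCRTH2 membranes from HEK293 cells at 20 μg/well. After 90 min at room temperature, mixtures were filtered and washed with ice-cold buffer, and retained radioactivity was counted.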
In general terms: Loss of bound radioactivity is the signal in a displacement assay; it reports binding, not function.

For assay [2], the system named is eosinophils. The experiment in a line: Eosinophil shape change assay with human plasma. It is filed as cell-based. To be noted: Homo sapiens, Eosinophil, human plasma (50%), PGD2 100 nM activation, antagonistic activity. A digest of the protocol: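 Human polymorphonuclear cells stained with anti-CD49d-APC, combined with compound-preincubated human plasma (50% of final volume, 4×10^6 cells/ml) for 10 min at 37° C., then stimulated 5 min with 100 nM PGD2 and fixed. Flow cytometry scored percent eosinophils with increased forward scatter.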

Sequence of hCRTH2 receptor (Q9Y5Y4 whole entry): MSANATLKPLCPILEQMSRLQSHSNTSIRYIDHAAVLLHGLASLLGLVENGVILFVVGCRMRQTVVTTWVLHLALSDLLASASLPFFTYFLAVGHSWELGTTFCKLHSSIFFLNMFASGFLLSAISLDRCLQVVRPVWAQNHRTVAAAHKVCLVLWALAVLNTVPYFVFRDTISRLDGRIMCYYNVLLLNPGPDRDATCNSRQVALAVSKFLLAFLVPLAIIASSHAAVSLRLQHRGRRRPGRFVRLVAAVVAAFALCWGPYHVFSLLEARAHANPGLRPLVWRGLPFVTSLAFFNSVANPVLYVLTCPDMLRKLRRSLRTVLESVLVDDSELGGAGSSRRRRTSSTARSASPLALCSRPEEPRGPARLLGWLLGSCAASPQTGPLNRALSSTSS

For `CCOc1ccc(CC(=O)O)cc1-c1ccc(F)c2c1CN(C(=O)OCc1cc(Cl)ccc1F)CC2` [Example 402, 8-(5-Carboxymethyl-2-ethoxy-phenyl)-5-fluoro-3,4-dihydro-1H-isoquinoline-2-carboxylic acid 5-chloro-2-fluoro-benzyl ester], the figures for the pIC50 in assay [1] and in assay [2] were 8.37 and 7.70, respectively.
Turning to `CCOc1cc(CC(=O)O)ccc1-c1ccc(F)c2c1CN(C(=O)CC1COc3ccccc31)CC2` (racemic) [Example 235], the values for the pIC50 in assay [1] and in assay [2] were 9.52 and 7.70, respectively.
In the same order, the values of `CCOc1ccc(CC(=O)O)cc1-c1ccc(F)c2c1CN(C(=O)CC(C)c1ccc(F)cc1)CC2` (racemic) [Example 278] are 8.41 and 7.72.
In the same order, the values of `COc1ccc(CC(=O)O)cc1-c1ccc(C(F)(F)F)c2c1CN(C(=O)[C@@H]1C[C@H]1c1ccccc1)CC2` (racemic) [Example 83, (±)-{4-Methoxy-3-[2-(trans-2-phenyl-cyclopropanecarbonyl)-5-trifluoromethyl-1,2,3,4-tetrahydro-isoquinolin-8-yl]-phenyl}-acetic acid] are 7.58 and less than 6.00.
`CCOc1cc(CC(=O)O)ccc1-c1ccc(F)c2c1CN(C(=O)CC1CCOc3ccccc31)CC2` (racemic) [Example 236]: the results for the pIC50 in assay [1] and in assay [2] were 9.10 and 7.92, respectively.
For `CCOc1ccc(CC(=O)O)cc1-c1ccc(F)c2c1CN(C(=O)OCC1CCCCC1)CC2` [Example 396, 8-(5-Carboxymethyl-2-ethoxy-phenyl)-5-fluoro-3,4-dihydro-1H-isoquinoline-2-carboxylic acid cyclohexylmethyl ester], the pIC50 in assay [1] was 8.59; in assay [2] it was 7.74.
In the same order, the values of `CCCCOC(=O)N1CCc2c(F)ccc(-c3cc(CC(=O)O)ccc3OCC)c2C1` [Example 376, 8-(5-Carboxymethyl-2-ethoxy-phenyl)-5-fluoro-3,4-dihydro-1H-isoquinoline-2-carboxylic acid butyl ester] are 8.20 and 7.23.

The term pIC50 denotes −log10 of the IC50, conventionally taken in molar units. Low values mean a high IC50, high ones a low IC50.
